The values that follow come from paper PMC11110727, “Exploiting thiol-functionalized benzosiloxaboroles for achieving diverse substitution patterns – synthesis, characterization and biological evaluation of promising antibacterial agents” (RSC Medicinal Chemistry, 2024).

≈ marks a conversion by molar mass, not a printed value.

One series has as its system E. coli ATCC 25922. In words: Antibacterial activity: MIC/MBC, MIC with PAβN, disc-diffusion. The series is classed as cell-based, Escherichia coli. Conditions: E. coli ATCC 25922; for MIC: Escherichia coli, ATCC25922, read-out: MIC; for -fold reduction of MIC in the presence of PAβN: PAβN 20 μg mL^−1, MHB + 1 mM MgSO4. As for the experimental part:
(§1) Direct antimicrobial activity was determined against the following standard strains: (1) Gram-positive cocci: methicillin-sensitive Staphylococcus aureus ATCC 6538P (MSSA), methicillin-resistant S. aureus subsp. aureus ATCC 43300 (MRSA), S. epidermidis ATCC 12228, Enterococcus faecium ATCC 6057, E. faecalis ATCC 29212, Bacillus subtilis ATCC 6633; (2) Gram-negative bacteria from Enterobacteriales order: Klebsiella pneumoniae ATCC 13883, Escherichia coli ATCC 25922, Enterobacter cloacae DSM 6234, Proteus mirabilis ATCC 12453, Serratia marcescens ATCC 13880; (3) Gram-negative non-fermentative rods: Acinetobacter baumannii ATCC 19606, Pseudomonas aeruginosa ATCC 27853, Stenotrophomonas maltophilia ATCC 12714, S. maltophilia ATCC 13637, Burkholderia cepacia ATCC 25416, Bordetella bronchiseptica ATCC 4617; (4) yeasts: Candida albicans ATCC 90028, C. krusei ATCC 6258, C. parapsilosis ATCC 22019, C. tropicalis (Castellani) Berkhout ATCC 750, C. tropicalis IBA 171, C. guilliermondii IBA 155, and Saccharomyces cerevisiae ATCC 9763. Moreover, 5 clinical strains of methicillin-resistant S. aureus were also included: NMI 664 K, NMI 1576 K, NMI 1712 K, NMI 1991 K, and NMI 2541 K. All strains were stored at −80 °C. Prior to testing, each bacterial strain was subcultured twice on tryptic soy agar TSA (bioMerieux) medium and yeast strains on Sabouraud dextrose agar (bioMerieux) for 24–48 h at 30 °C to ensure viability. The antimicrobial activity was evaluated as previously described[26] by the disc-diffusion method and the MIC determination assays according to the EUCAST (ref. [71] and [72]) and CLSI (ref. [53] and [73]) recommendations. Assessment of bactericidal (MBC) and fungicidal (MFC) activities was performed according to the CLSI recommendations.[54,74] […] The new benzosiloxaboroles were dissolved in DMSO (Sigma).
(§2) Considering that the MDR efflux pumps often contribute to Gram-negative rod resistance, the MIC values of studied agents, with or without the pump inhibitor, PAβN (20 μg mL^−1) (Sigma), were determined.[75] The MIC was determined using Mueller–Hinton II broth medium (MHB) (Becton Dickinson) by the broth microdilution method, according to the CLSI guideliness.[53] To minimize the influence of PAβN on the destabilization of bacterial cell covers, the tests were conducted in the presence of 1 mM MgSO4 (Sigma).[76] At least a 4-fold reduction in the MIC value after the addition of PAβN was considered significant.[56,77]
In general terms: A growth-free zone around the sample is the usual read-out of agar diffusion tests.

For series [1], the system named is Human normal lung fibroblasts MRC-5. Put plainly: MTT-based viability (cytotoxicity) assay. Conditions: for IC50: Homo sapiens, MRC5, 48 h. Summed up: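 MRC-5 pd30 human lung fibroblasts in supplemented MEME at 37 °C, 5% CO2; viability by MTT, absorbance 570 nm, triplicate, as percent of control cells. Selectivity index taken as IC50/MIC against S. aureus MRSA strains.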

The subject of series [2] is B. bronchiseptica ATCC 4617. Put plainly: Antibacterial activity: MIC/MBC, disc-diffusion. The series is classed as cell-based, Bordetella bronchiseptica. Conditions: B. bronchiseptica ATCC 4617; for MIC: Bordetella bronchiseptica, ATCC4617, read-out: MIC. As for the experimental part:
as §1, §2

The next series deals with C. albicans ATCC 90028. In words: Antifungal activity: MIC/MFC, disc-diffusion. The series is classed as cell-based, Candida albicans. Conditions: for diameter of inhibition zone: C. albicans ATCC 90028, (-) = zone not observed, paper discs 9 mm; for MIC: Candida albicans, ATCC90028, read-out: MIC. As for the experimental part:
Direct antimicrobial activity was determined against the following standard strains: (1) Gram-positive cocci: methicillin-sensitive Staphylococcus aureus ATCC 6538P (MSSA), methicillin-resistant S. aureus subsp. aureus ATCC 43300 (MRSA), S. epidermidis ATCC 12228, Enterococcus faecium ATCC 6057, E. faecalis ATCC 29212, Bacillus subtilis ATCC 6633; (2) Gram-negative bacteria from Enterobacteriales order: Klebsiella pneumoniae ATCC 13883, Escherichia coli ATCC 25922, Enterobacter cloacae DSM 6234, Proteus mirabilis ATCC 12453, Serratia marcescens ATCC 13880; (3) Gram-negative non-fermentative rods: Acinetobacter baumannii ATCC 19606, Pseudomonas aeruginosa ATCC 27853, Stenotrophomonas maltophilia ATCC 12714, S. maltophilia ATCC 13637, Burkholderia cepacia ATCC 25416, Bordetella bronchiseptica ATCC 4617; (4) yeasts: Candida albicans ATCC 90028, C. krusei ATCC 6258, C. parapsilosis ATCC 22019, C. tropicalis (Castellani) Berkhout ATCC 750, C. tropicalis IBA 171, C. guilliermondii IBA 155, and Saccharomyces cerevisiae ATCC 9763. Moreover, 5 clinical strains of methicillin-resistant S. aureus were also included: NMI 664 K, NMI 1576 K, NMI 1712 K, NMI 1991 K, and NMI 2541 K. All strains were stored at −80 °C. Prior to testing, each bacterial strain was subcultured twice on tryptic soy agar TSA (bioMerieux) medium and yeast strains on Sabouraud dextrose agar (bioMerieux) for 24–48 h at 30 °C to ensure viability. The antimicrobial activity was evaluated as previously described[26] by the disc-diffusion method and the MIC determination assays according to the EUCAST (ref. [71] and [72]) and CLSI (ref. [53] and [73]) recommendations. Assessment of bactericidal (MBC) and fungicidal (MFC) activities was performed according to the CLSI recommendations.[54,74] The following reference agents were used: fluconazole (in the case of fungi), linezolid (for Gram-positive bacteria), and nitrofurantoin (for Gram-negative rods). The new benzosiloxaboroles were dissolved in DMSO (Sigma).

By MIC is commonly meant the smallest concentration in the dilution series that meets the test's criterion for growth inhibition. For orientation: IC50 means the concentration that inhibits the measured activity by half. High values mean a need for much substance, low ones inhibition by little substance.

With `C[Si]1(C)OB(O)c2ccc(SC3CC(=O)N(c4ccc(Br)c(C(F)(F)F)c4)C3=O)c(F)c21` (centres unmarked) [Compound 17, 1-(4-Bromo-3-(trifluoromethyl)phenyl)-3-((7-fluoro-3-hydroxy-1,1-dimethyl-1,3-dihydrobenzo[c][1,2,5]oxasilaborol-6-yl)thio)pyrrolidine-2,5-dione], the MIC was over 200 µg/mL in the series on E. coli ATCC 25922, 200 µg/mL (≈ 365 µM) in series [2] and 100 µg/mL (≈ 182 µM) in the series with C. albicans ATCC 90028. In addition, the “viability of MRC-5” value in series [1] (6.25 µg·mL−1, 48 h) is given as 99.9±4.6 % of control ± SD; in series [1] (12.5 µg·mL−1, 48 h) it was 96.1±2.3 % of control ± SD; in series [1] (25 µg·mL−1, 48 h), 87.6±0.2 % of control ± SD; in series [1] (50 µg·mL−1, 48 h), 89.2±8.5 % of control ± SD; in series [1] (100 µg·mL−1, 48 h), 71.2±1.3 % of control ± SD; in series [1] (200 µg·mL−1, 48 h) it was 29.5±0.3 % of control ± SD. In series [1] (400 µg·mL−1, 48 h), the “viability of MRC-5” value is given as 0.0±0.0 % of control ± SD. In series [1], this molecule showed an IC50 of 140 µg/mL (≈ 254 µM). Also, the “diameter of inhibition zone” value with C. albicans ATCC 90028 is 20 mm.

Take `C[Si]1(C)OB(O)c2cc(F)c(SC3CC(=O)N(c4ccc(F)cc4)C3=O)c(F)c21` (centres unmarked) [Compound 14, 3-((5,7-Difluoro-3-hydroxy-1,1-dimethyl-1,3-dihydrobenzo[c][1,2,5]oxasilaborol-6-yl)thio)-1-(4-fluorophenyl)pyrrolidine-2,5-dione]: in the series with E. coli ATCC 25922, the “-fold reduction of MIC in the presence of PAβN” value is 2 -fold. Besides, the MIC in the series on E. coli ATCC 25922 was over 200 µg/mL; in series [2], 200 µg/mL (≈ 457 µM); in the series on C. albicans ATCC 90028, 200 µg/mL (≈ 457 µM). Moreover, the “viability of MRC-5” value in series [1] (6.25 µg·mL−1, 48 h) is on record as 90.4±7.6 % of control ± SD; in series [1] (12.5 µg·mL−1, 48 h), 88.8±5.4 % of control ± SD; in series [1] (25 µg·mL−1, 48 h), 87.5±3.5 % of control ± SD; in series [1] (50 µg·mL−1, 48 h), 80.3±7.5 % of control ± SD; in series [1] (100 µg·mL−1, 48 h), 52.0±2.8 % of control ± SD; in series [1] (200 µg·mL−1, 48 h) it was 27.3±3.2 % of control ± SD. In addition, in series [1] (400 µg·mL−1, 48 h), the “viability of MRC-5” value is given as 0.1±0.1 % of control ± SD. In series [1], it took 133 µg/mL (≈ 305 µM) to reach half-maximal inhibition (IC50). The “diameter of inhibition zone” value in series [2] ((-) = zone not observed, paper discs 9 mm) is reported as 11 mm; with C. albicans ATCC 90028, 21 mm.

As for `C[Si]1(C)OB(O)c2ccc(SC3CC(=O)N(c4ccc(F)cc4)C3=O)c(F)c21` (centres unmarked) [Compound 15, 3-((7-Fluoro-3-hydroxy-1,1-dimethyl-1,3-dihydrobenzo[c][1,2,5]oxasilaborol-6-yl)thio)-1-(4-fluorophenyl)pyrrolidine-2,5-dione], the minimal inhibitory concentration (MIC) in the series on E. coli ATCC 25922 is over 200 µg/mL; in series [2], over 200 µg/mL; in the series on C. albicans ATCC 90028 it was 200 µg/mL (≈ 477 µM). For the same molecule, the “viability of MRC-5” value is recorded as 89.2±0.3 % of control ± SD in series [1] (6.25 µg·mL−1, 48 h); 77.9±4.3 % of control ± SD in series [1] (12.5 µg·mL−1, 48 h); 73.7±0.8 % of control ± SD in series [1] (25 µg·mL−1, 48 h); 69.9±1.8 % of control ± SD in series [1] (50 µg·mL−1, 48 h); 65.0±0.1 % of control ± SD in series [1] (100 µg·mL−1, 48 h); 41.5±0.7 % of control ± SD in series [1] (200 µg·mL−1, 48 h). Moreover, the “viability of MRC-5” value in series [1] (400 µg·mL−1, 48 h) is 6.7±0.1 % of control ± SD. Besides, half-maximal inhibition in series [1] (IC50) was put at 145 µg/mL (≈ 346 µM). The “diameter of inhibition zone” value in the series on C. albicans ATCC 90028 turned out to be 19 mm.

Turning to `C[Si]1(C)OB(O)c2cc(F)c(S(=O)(=O)Nc3ccc(F)cc3)c(F)c21` [Compound 28, 5,7-Difluoro-N-(4-fluorophenyl)-3-hydroxy-1,1-dimethyl-1,3-dihydrobenzo[c][1,2,5]oxasilaborole-6-sulfonamide], in the series on E. coli ATCC 25922, the “-fold reduction of MIC in the presence of PAβN” value is 4 -fold. In addition, the MIC (with E. coli ATCC 25922; in series [2]; with C. albicans ATCC 90028) was over 400 µg/mL in each case. Moreover, the “viability of MRC-5” value in series [1] (6.25 µg·mL−1, 48 h) was 93.3±1.9 % of control ± SD; in series [1] (12.5 µg·mL−1, 48 h) it was 82.6±1.2 % of control ± SD; in series [1] (25 µg·mL−1, 48 h), 75.1±5.4 % of control ± SD; in series [1] (50 µg·mL−1, 48 h), 65.5±1.8 % of control ± SD; in series [1] (100 µg·mL−1, 48 h), 47.7±3.7 % of control ± SD; in series [1] (200 µg·mL−1, 48 h) it was 32.5±0.0 % of control ± SD. For the same molecule, in series [1] (400 µg·mL−1, 48 h), the “viability of MRC-5” value is reported as 15.6±0.1 % of control ± SD. Further, the IC50 in series [1] came out at 74.9 µg/mL (≈ 193 µM).

On to `C[Si]1(C)OB(O)c2cc(F)c(SCCC(=O)Nc3ncccn3)c(F)c21` [Compound 9, 3-((5,7-Difluoro-3-hydroxy-1,1-dimethyl-1,3-dihydrobenzo[c][1,2,5]oxasilaborol-6-yl)thio)-N-(pyrimidin-2-yl)propanamide], for which the MIC (in the series on E. coli ATCC 25922; in series [2]; in the series on C. albicans ATCC 90028) was over 400 µg/mL each time.

On to `C[Si]1(C)OB(O)c2cc(F)c(S(=O)(=O)Cl)c(F)c21` [Compound 26, 5,7-Difluoro-3-hydroxy-1,1-dimethyl-1,3-dihydrobenzo[c][1,2,5]oxasilaborole-6-sulfonyl chloride], for which the minimum inhibitory concentration (MIC) (in the series on E. coli ATCC 25922; in series [2]; in the series with C. albicans ATCC 90028) was over 400 µg/mL throughout.

Consider `C[Si]1(C)OB(O)c2cc(F)c(SCCC(=O)OCCCCCC[n+]3ccccc3)c(F)c21` [Compound 18, 1-(6-((3-((5,7-difluoro-3-hydroxy-1,1-dimethyl-1,3-dihydrobenzo[c][1,2,5]oxasilaborol-6-yl)thio)propanoyl)oxy)hexyl)pyridin-1-ium trifluoromethanesulfonate], for which the MIC (in the series with E. coli ATCC 25922; in series [2]; with C. albicans ATCC 90028) was over 400 µg/mL each time.

Regarding `C[Si]1(C)OB(O)c2cc(F)c(SCCC(=O)ON3C(=O)CCC3=O)c(F)c21` [Compound 5, 2,5-Dioxopyrrolidin-1-yl 3-((5,7-difluoro-3-hydroxy-1,1-dimethyl-1,3-dihydrobenzo-[c][1,2,5]oxasilaborol-6-yl)thio)propanoate], the minimal inhibitory concentration (MIC) (in the series on E. coli ATCC 25922; in series [2]; in the series with C. albicans ATCC 90028) was over 400 µg/mL in each case.
